Here are results for 3 compounds from patent publication US7244753B2, “Cyclooxygenase-2 selective inhibitors, compositions and methods of use” (NitroMed, Inc., priority 2002, dated 2007).

SMILES strings stand for the structures.

One series has as its target T1, Human COX-2 (Homo sapiens, UniProt P35354).
T1 construct: Human blood (≈50 mL) from male or female donors who had not received any aspirin or NSAIDs for 14 days was collected; endogenous in cells; host or cells: human whole blood from donors, heparinised, COX-2 induced with E. coli LPS
T1 sequence (P35354 18-604): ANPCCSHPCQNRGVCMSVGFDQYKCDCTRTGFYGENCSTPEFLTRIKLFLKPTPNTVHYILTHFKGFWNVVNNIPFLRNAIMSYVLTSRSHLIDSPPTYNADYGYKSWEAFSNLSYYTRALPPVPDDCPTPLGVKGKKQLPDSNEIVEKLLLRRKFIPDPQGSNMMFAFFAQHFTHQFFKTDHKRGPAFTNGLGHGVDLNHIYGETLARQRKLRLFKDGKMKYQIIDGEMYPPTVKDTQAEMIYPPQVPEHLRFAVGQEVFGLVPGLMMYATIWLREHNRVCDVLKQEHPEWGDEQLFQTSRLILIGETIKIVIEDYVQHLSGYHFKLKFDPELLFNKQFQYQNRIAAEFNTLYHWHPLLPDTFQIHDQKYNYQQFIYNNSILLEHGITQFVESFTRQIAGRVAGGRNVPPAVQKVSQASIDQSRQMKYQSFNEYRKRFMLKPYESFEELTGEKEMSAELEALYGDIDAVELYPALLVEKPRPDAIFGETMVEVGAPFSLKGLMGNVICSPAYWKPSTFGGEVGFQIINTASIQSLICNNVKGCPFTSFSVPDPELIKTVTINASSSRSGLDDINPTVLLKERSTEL
Briefly: COX-2 enzyme activity in human whole blood (LPS-induced, thromboxane B2 EIA). It is filed as cell-based. Particulars: for inhibition at 1 µM: 1 μM test compound; for inhibition at 10 µM: 10 μM test compound. As for the experimental part: (§1) Human blood (≈50 mL) from male or female donors who had not received any aspirin or NSAIDs for 14 days was collected at two local area blood donor centers and placed in polypropylene syringes containing sodium heparin (20 units per mL blood, final concentration). The blood was transported to the laboratory on ice packs and used within 1.5 hours of collection. Upon receipt in the laboratory, the blood was allowed to come to room temperature for 15 minutes prior to distribution in 1 mL aliquots per well of 24 well tissue culture plates. The plates were then placed on a gently rotating platform shaker in a 5% CO2 incubator at 37° C. for 15 minutes. Test compounds were dissolved in DMSO, at 1000 fold the final desired concentration, and further diluted, as indicated, in DMSO. One μL of each dilution of the test compound was added per well, in duplicate wells; wells not receiving test compound (e.g., basal, background or control wells) received 1 μL DMSO.
(§2) (Basal or background wells not incubated with LPS received 2 μL of DMSO.) For the stimulation of COX-1, the calcium ionophore, A23187 (free acid from Sigma Chemical Co., St. Louis, Mo., Catalogue No. C7522) was added at 25 μM (1 μL of 25 mM stock in DMSO) to separate wells 4.5 hours after the addition of the test compound. (Again, basal, background or control wells not stimulated with A23187 received 1 μL of DMSO.) At 5 hours after the addition of the test compound, all incubations were terminated by placement on ice and the addition of 2 mM EGTA (100 μL of 20 mM EGTA, tetrasodium, in PBS (phosphate buffered saline) without Ca^++ and Mg^++, pH 7.2)). The resulting solutions, were transferred by polyethylene transfer pipettes to 15 mL polypropylene centrifuge tubes and centrifuged at 1200 g for 10 minutes at 4° C. One hundred μL of plasma was removed from each blood sample and added to 1 mL of methanol in new 15 mL polypropylene centrifuge tubes, vortexed, and stored overnight at −20° C. The next day, the samples were centrifuged at 2000 g for 10 minutes at 4° C. and the supernatants transferred to glass tubes and evaporated to dryness.

The subject of series [1] is Rat Carrageenan Air-Pouch. The experiment in a line: Rat carrageenan air-pouch. The following applies: 45 μmol/kg by oral intubation 1 hour prior to carrageenan. It counts as in vivo. The method, then: The carrageenan air pouch model was performed as described by Sedgwick, A. D., et al., Agents Actions 18, 429-438, (1986) and Masferrer et al., Proc. Natl. Acad. Sci. 91, 3228-3232 (1994). Air pouches were produced by subcutaneous injection of 20 ml of sterile air on day (−6) into the intrascapular area of the back of the anesthesia rat (male CD, Charles River, 175-200 g). An additional 10 mL of sterile air was injected into the pouch 3 days later to keep the space open and to assist in the development of the interior membrane. Six days after the initial air injection, 1 mL of a 1% solution of carrageenan (Sigma, lambda fraction) dissolved in pyrogen-free saline was injected directly into the pouch to produce an inflammatory response. The test compound in vehicle (3 mL/rat, 0.5% Methocel) was administered by oral intubation 1 hour prior to carrageenan injection into the inflammatory pouch. After 4 hours the exudate was removed by pipette into a calibrated centrifuge tube and the volume measured. The number of leukocytes in the exudate was determined by cell counting with a Beckman Coulter Particle Counter with the lower threshold set to exclude red blood cells. The exudate samples were assayed without further processing for PGE2 (prostaglandin E2) using PGE2 EIA kit-Monoclonal, friom Cayman Chemical Co. (Ann Arbor, Mich., Catalogue No. 514010). […]

In a further series the target is T2, Human COX-1 (Homo sapiens, UniProt P23219).
T2 construct: Human blood (≈50 mL) from male or female donors who had not received any aspirin or NSAIDs for 14 days was collected; endogenous in cells; host or cells: human whole blood from donors, heparinised, stimulated with calcium ionophore A23187
Briefly: COX-1 enzyme activity in human whole blood (A23187-stimulated, thromboxane B2 EIA). It is filed as cell-based. Particulars: 100 μM test compound. As for the experimental part:
as §1, with “The assay for COX-1 and COX-2 enzyme activity, in the human whole blood was performed as described in Brideau et al., Inflamm Res., 45: 68-74 (1996)). Human” for “Human”
as §2, with “To induce COX-2, lipopolysaccharide (LPS) from E. coli (LPS, serotype 026:B6 or serotype 0127:B8, Sigma Chemical Co., St. Louis, Mo., Catalogue No. L3755 or L3129, respectively) was added at 10 μg/mL (2 μL of 5 mg/mL LPS in DMSO) to appropriate wells 15 minutes after the addition of the test compound. (Basal” for “(Basal”, “dryness. The samples were assayed for thromboxane B2 using EIA kits supplied by Cayman Chemical Co. (Ann Arbor, Mich., Catalogue No. 519031) in duplicate wells after reconstitution with EIA Buffer and appropriate dilution (2000 fold for COX-1 and 500 fold for Cox-2 samples).” for “dryness.”
The % inhibition for COX-1 and COX-2 enzyme activity in human whole blood by the test compounds, at the indicated concentrations, are given in Table 1.

T2 sequence (P23219 24-599): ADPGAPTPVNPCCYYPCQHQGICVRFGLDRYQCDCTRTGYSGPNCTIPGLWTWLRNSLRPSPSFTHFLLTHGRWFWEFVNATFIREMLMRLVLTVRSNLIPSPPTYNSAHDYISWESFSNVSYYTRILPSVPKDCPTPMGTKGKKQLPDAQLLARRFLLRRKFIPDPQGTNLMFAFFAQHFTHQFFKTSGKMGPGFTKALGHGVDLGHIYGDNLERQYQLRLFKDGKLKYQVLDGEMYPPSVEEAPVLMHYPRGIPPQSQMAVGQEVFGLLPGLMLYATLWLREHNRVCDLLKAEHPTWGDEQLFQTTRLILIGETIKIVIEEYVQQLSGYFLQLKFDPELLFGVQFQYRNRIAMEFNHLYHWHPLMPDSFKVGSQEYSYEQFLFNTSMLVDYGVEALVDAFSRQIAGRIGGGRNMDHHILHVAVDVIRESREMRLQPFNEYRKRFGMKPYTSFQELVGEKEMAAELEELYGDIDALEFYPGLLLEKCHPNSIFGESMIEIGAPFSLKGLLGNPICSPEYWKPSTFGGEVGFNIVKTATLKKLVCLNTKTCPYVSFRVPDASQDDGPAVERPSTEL

Take `CS(=O)(=O)c1ccc(-c2cc(COCCO[N+](=O)[O-])nn2CC2CCCCC2)cc1` [Example 2f, 4-(1-(Cyclohexylmethyl)-3-((2-(nitrooxy)ethoxy)methyl)pyrazol-5-yl)-1-(methylsulfonyl)benzene]: on Human COX-2, the inhibition at 1 µM was 20% and at 10 µM the inhibition was 75%. The “PGE-2 (% Inhibition at @ 45 μmol/kg)” value in series [1] (exudate PGE2 after 4 hours) came out at 85%. The “Cell Infiltration (% inhibition @ 45 μmol/kg)” value in series [1] (exudate leukocytes after 4 hours) came to 42%. This compound displayed an inhibition at 100 µM against Human COX-1 of 70%.
Take `CS(=O)(=O)c1ccc(-c2cc(CO[N+](=O)[O-])nn2CC2CCCCC2)cc1` [Example 1h, 1-(1-(Cyclohexylmethyl)-3-((nitrooxy)methyl)pyrazol-5-yl)-4-(methylsulfonyl)benzene]: the melting point lay in the range of 98 to 99 °C. At Human COX-2, this compound registered an inhibition at 1 µM of 10% and an inhibition at 10 µM of 65%. This compound also displayed an inhibition at 100 µM against Human COX-1 of 25%.
In the case of `CS(=O)(=O)c1ccc(-c2cc(/C=C/CO[N+](=O)[O-])nn2CC2CCCCC2)cc1` [Example 4e, 1-(3-((1E)-3-Nitrooxyprop-1-enyl)-1-(cyclohexylmethyl)pyrazol-5-yl)-4-(methylsulfonyl)benzene], the melting point fell in the range of 44 to 47 °C. At Human COX-2, this compound yielded an inhibition at 1 µM of 35% and an inhibition at 10 µM of 75%. Testing at 100 µM against Human COX-1 gave an inhibition of 40%.

The inhibition is the percentage by which the read-out fell short of the control. Higher therefore signals strong suppression. As usually defined, the melting point is the temperature of the solid-liquid transition.
